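96-well plates; 48 h exposure; 5 concentrations. Endpoints by linear interpolation between flanking doses. Not reached: highest tested concentration assigned. GI50 marks 50% less growth.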 Activity calls are given as the source filed them. Rule as the data show it: active = GI50 up to about 1.1 µM and inactive = higher.
Columns and labels:
Assay in all cases: NCI tumour cell line growth inhibition, 48 h
CAKI-1 = test system: CAKI-1
ACHN = test system: ACHN
KM12 = test system: KM12
OVCAR-5 = test system: OVCAR-5
A498 = test system: A498
HCT-116 = test system: HCT-116
MOLT-4 = test system: MOLT-4
TK-10 = test system: TK-10
HL-60 = test system: HL-60
UACC-257 = test system: UACC-257
COLO 205 = test system: COLO 205
LOX IMVI = test system: LOX IMVI
UO-31 = test system: UO-31
LXFL 529 = test system: LXFL 529
M19-MEL = test system: M19-MEL
HCC 2998 = test system: HCC 2998
Hs-578T = test system: Hs-578T
MDA-MB-231 = test system: MDA-MB-231
MDA-MB-435 = test system: MDA-MB-435
MCF7 = test system: MCF7

SMILES | GI50 (CAKI-1) | GI50 (ACHN) | GI50 (KM12) | GI50 (OVCAR-5) | GI50 (A498) | GI50 (HCT-116) | GI50 (MOLT-4) | GI50 (TK-10) | GI50 (HL-60) | GI50 (UACC-257) | GI50 (COLO 205) | GI50 (LOX IMVI) | GI50 (UO-31) | GI50 (LXFL 529) | GI50 (M19-MEL) | GI50 (HCC 2998) | GI50 (Hs-578T) | GI50 (MDA-MB-231) | GI50 (MDA-MB-435) | GI50 (MCF7)
O=C1NC2OC(CO)C(O)C(O)C2O1 (stereo unspecified) | > 100 µM (inactive) | > 100 µM (inactive) | > 100 µM (inactive) | > 100 µM (inactive) | > 100 µM (inactive) | > 100 µM (inactive) | > 100 µM (inactive) | > 100 µM (inactive) | > 100 µM (inactive) | > 100 µM (inactive) | > 100 µM (inactive) | > 100 µM (inactive) | > 100 µM (inactive) | > 100 µM (inactive) | > 100 µM (inactive) | > 100 µM (inactive) |  |  |  | 
C[Si](C)(C)C1(Sc2ccccc2)SCCCS1 | 54.6 µM (inactive) | 35.9 µM (inactive) | 64.7 µM (inactive) | > 100 µM (inactive) | 40.6 µM (inactive) | 21.3 µM (inactive) | 15.1 µM (inactive) | > 100 µM (inactive) | 12 µM (inactive) | 38.7 µM (inactive) | 41.5 µM (inactive) | 31.6 µM (inactive) | 6.27 µM (inactive) | 34.4 µM (inactive) | 34 µM (inactive) | 31.5 µM (inactive) |  |  |  | 
O=C(/C=C/c1ccccc1)CCN1CCOCC1 | 8.39 µM (inactive) | 15.2 µM (inactive) | 7.52 µM (inactive) | 15.7 µM (inactive) | 19 µM (inactive) | 12.1 µM (inactive) | 4.28 µM (inactive) | 13.7 µM (inactive) | 2.12 µM (inactive) | 12.2 µM (inactive) | 8.3 µM (inactive) | 10.9 µM (inactive) | 16.6 µM (inactive) | 2.78 µM (inactive) | 14.6 µM (inactive) | 20 µM (inactive) | 27.1 µM (inactive) | 16.6 µM (inactive) | 15 µM (inactive) | 4.99 µM (inactive)
CCSCN(C)c1nc(N(C)C)nc(N(C)C)n1 | 68.2 µM (inactive) | > 100 µM (inactive) | 35.3 µM (inactive) | > 100 µM (inactive) | 47.8 µM (inactive) | 54.7 µM (inactive) | 46.8 µM (inactive) | > 100 µM (inactive) | 29.9 µM (inactive) | 43 µM (inactive) | 75.2 µM (inactive) | 41.3 µM (inactive) | 41.7 µM (inactive) | 45.3 µM (inactive) | 64 µM (inactive) | > 100 µM (inactive) |  |  |  | 
O=C(Cc1nc2ccccc2o1)C(=O)Nc1ccccc1C(F)(F)F | > 100 µM (inactive) | > 100 µM (inactive) | > 100 µM (inactive) | > 100 µM (inactive) | > 100 µM (inactive) | > 100 µM (inactive) |  | > 100 µM (inactive) | > 100 µM (inactive) | > 100 µM (inactive) | > 100 µM (inactive) | > 100 µM (inactive) | > 100 µM (inactive) | > 100 µM (inactive) | > 100 µM (inactive) | > 100 µM (inactive) |  |  |  | 
CC(=O)OCC1(C)C(OC(C)=O)CCC2(C)C(CC(OC(C)=O)C3=CCOC3=O)C(O)(CO)CCC12 (stereo unspecified) | > 100 µM (inactive) | > 100 µM (inactive) | > 100 µM (inactive) | > 100 µM (inactive) | > 100 µM (inactive) | > 100 µM (inactive) |  | > 100 µM (inactive) | 61.5 µM (inactive) | > 100 µM (inactive) | > 100 µM (inactive) | > 100 µM (inactive) | > 100 µM (inactive) | > 100 µM (inactive) | > 100 µM (inactive) | > 100 µM (inactive) |  |  |  | 
Nc1nc(CC2(O)CCCCC2)cc(-c2ccccc2)n1 | 51.2 µM (inactive) | 34.4 µM (inactive) | 23.1 µM (inactive) | 20.9 µM (inactive) | 33.5 µM (inactive) | 19.8 µM (inactive) | 16.7 µM (inactive) | > 61.8 µM (inactive) | 15.6 µM (inactive) | 36.3 µM (inactive) | 16.7 µM (inactive) | 40.4 µM (inactive) | > 55 µM (inactive) | > 66.7 µM (inactive) | 28.1 µM (inactive) | 26.6 µM (inactive) |  |  |  | 
CCc1cccc(C)c1NC(=O)CCc1nnc2s/c(=C\c3cccc4ccccc34)c(=O)n12 | > 100 µM (inactive) | > 100 µM (inactive) | 92.7 µM (inactive) | > 100 µM (inactive) | > 100 µM (inactive) | 57.1 µM (inactive) | 17.9 µM (inactive) | > 100 µM (inactive) | 44.6 µM (inactive) | > 100 µM (inactive) | > 100 µM (inactive) | 80.7 µM (inactive) | > 100 µM (inactive) | 73.3 µM (inactive) | > 100 µM (inactive) | > 100 µM (inactive) |  |  |  | 
C/C(=N\NC(=[Se])N(C)C)c1ccccn1 | 0.188 µM (active) | < 0.01 µM (active) | 0.0234 µM (active) | 0.103 µM (active) | 0.4 µM (active) | < 0.01 µM (active) | < 0.01 µM (active) | 1.87 µM (inactive) | < 0.01 µM (active) | < 0.01 µM (active) | < 0.01 µM (active) | < 0.01 µM (active) | 0.457 µM (active) | < 0.01 µM (active) | 0.339 µM (active) | 0.459 µM (active) | 0.208 µM (active) | 0.0131 µM (active) | 1.11 µM (active) | < 0.01 µM (active)
COC(=O)C(C#CCCCCC#CC(NC(=O)OCc1ccccc1)(C(=O)OC)C(F)(F)F)(NC(=O)OCc1ccccc1)C(F)(F)F (stereo unspecified) | > 100 µM (inactive) | > 100 µM (inactive) | > 100 µM (inactive) | > 100 µM (inactive) | > 100 µM (inactive) | 97.9 µM (inactive) |  | > 100 µM (inactive) | > 100 µM (inactive) | > 100 µM (inactive) | > 100 µM (inactive) | > 100 µM (inactive) | 7.45 µM (inactive) | > 100 µM (inactive) | > 100 µM (inactive) | > 100 µM (inactive) |  |  |  | 
O=C(CCN1CCCCC1CO)Nc1ccc2c(c1)C(=O)c1ccc(NC(=O)CCN3CCCCC3CO)cc1C2=O (stereo unspecified) | 13.5 µM (inactive) | 11.8 µM (inactive) | 4.34 µM (inactive) | 18.7 µM (inactive) | 2.25 µM (inactive) | 7.38 µM (inactive) | 8.39 µM (inactive) | 8.3 µM (inactive) | 10.6 µM (inactive) | 14.4 µM (inactive) | 7.71 µM (inactive) | 6.93 µM (inactive) | 13.8 µM (inactive) | 2.34 µM (inactive) | 15.8 µM (inactive) | 9.35 µM (inactive) |  |  |  | 

Reference: ChEMBL document CHEMBL1201862, “PubChem BioAssay data set” (2004)
